Assay results published in US7157495B2, “Hexahydrofuro[2,3-B]furan-3-YL-N-{3-[(1,3-benzodioxol-5-ylsulfonyl)(isobutyl)amino]-1-benzyl-2-hydroxypropyl}carbamate as retroviral protease inhibitor” (Tibotec Pharmaceuticals, Ltd., priority 1999, dated 2007).
pIC50: −log10 of the molar value. Read-outs that look alike come from different tables or passages of the source.

How the values were obtained:
Type in all cases: cell-based
[1] = tested on: HIV-1 strain LAI; test: Cellular anti-HIV assay in MT4 cells (MTT)
Procedure: (§1) HIV- or mock-infected MT4 cells were incubated for five days in the presence of various concentrations of the inhibitor. At the end of the incubation period, all HIV-infected cells have been killed by the replicating virus in the control cultures in the absence of any inhibitor. Cell viability is measured by measuring the concentration of MTT, a yellow, water soluble tetrazolium dye that is converted to a purple, water insoluble formazan in the mitochondria of living cells only. Upon solubilization of the resulting formazan crystals with isopropanol, the absorbance of the solution is monitored at 540 nm. The values correlate directly to the number of living cells remaining in the culture at the completion of the five day incubation. The inhibitory activity of the compound was monitored on the virus-infected cells and was expressed as IC50 and IC90. These values represent the amount of the compound required to protect 50% and 90%, respectively, of the cells from the cytopathogenic effect of the virus. The toxicity of the compound was measured on the mock-infected cells and was expressed as CC50, which represents the concentration of compound required to inhibit the growth of the cells by 50%. The select index (SI) (ratio CC50/IC50) is an indication of the selectivity of the anti-HIV activity of the inhibitor.

[2] = tested on: HIV strain r13020; test: Antiviral spectrum, protease inhibitor resistant strain; conditions: Human immunodeficiency virus 1, strain r13020; L10I, K20R, M36I, 154V, A71V, V82T, 184V
Procedure: as §1
(§2) Because of the increasing emergence of drug resistant HIV strains, compound 13 and compound 14 were tested for its potency against HIV strains harbouring several mutations. These mutations are associated with resistance to protease inhibitors and result in viruses that show various degrees of phenotypic cross-resistance to five of the currently commercially available drugs (Saquinavir, Ritonavir, Nelfinavir, Indinavir and Amprenavir).

[3] = tested on: HIV strain r13021; test: as above; conditions: L10I, K20R, L24I, M36I, I54V, L63P, A71V, V82T, I84V
Procedure: as §1, §2

[4] = tested on: HIV strain r13022; test: as above; conditions: Human immunodeficiency virus 1, strain r13022; K20R, M36I, M46I/M, 154V, L63P, A71V/I, V82T, L90M
Procedure: as §1, §2

[5] = tested on: HIV strain r13023; test: as above; conditions: L10I, M36I/M, I54V/I, L63P, A71V, G73S, I84V, L90M
Procedure: as §1, §2

[6] = tested on: HIV strain r13024; test: as above; conditions: Human immunodeficiency virus 1, strain r13024; L10I, M36I, L63P, A71V, G73S, I84V, L90M
Procedure: as §1, §2

[7] = tested on: HIV strain r13025; test: as above; conditions: Human immunodeficiency virus 1, strain r13025; L10I, M46I, L63P, A71V, I84V
Procedure: as §1, §2

[8] = tested on: HIV strain r13026; test: as above; conditions: Human immunodeficiency virus 1, strain r13026; L10I, M46I, I54V, L63P, A71V, V82T, I84V
Procedure: as §1, §2

[9] = tested on: HIV strain r13027; test: as above; conditions: Human immunodeficiency virus 1, strain r13027; L10M/I, K20R, M36I, L63P, A71V, G73S, V77I, I84V, L90M
Procedure: as §1, §2

[10] = tested on: HIV strain r13029; test: as above; conditions: Human immunodeficiency virus 1, strain r13029; L10I/L, M36I, M46L, L63P, A71V, I84V, N88D, L90M
Procedure: as §1, §2

[11] = tested on: HIV strain r13030; test: as above; conditions: Human immunodeficiency virus 1, strain r13030; L10V/I, M36I, I54V, L63P, A71V, V82T, L90M
Procedure: as §1, §2

[12] = tested on: HIV strain r13031; test: as above; conditions: Human immunodeficiency virus 1, strain r13031; G48V, I54V, V77I, V82A, L90M/L
Procedure: as §1, §2

[13] = tested on: HIV strain r13033; test: as above; conditions: Human immunodeficiency virus 1, strain r13033; L10I, M46L, I54V, L63P, A71V, V82A, L90M
Procedure: as §1, §2

[14] = tested on: HIV strain r13034; test: as above; conditions: Human immunodeficiency virus 1, strain r13034; L10I, M36I, I54V, L63P, A71V, I84V
Procedure: as §1, §2

[15] = tested on: HIV strain r13035; test: as above; conditions: Human immunodeficiency virus 1, strain r13035; D30N, L63P, V77I, N88D
Procedure: as §1, §2

[16] = tested on: HIV strain r13036; test: as above; conditions: Human immunodeficiency virus 1, strain r13036; L10I, L63P, A71V, G73S, L90M
Procedure: as §1, §2

[17] = tested on: HIV strain r13037; test: as above; conditions: Human immunodeficiency virus 1, strain r13037; L10I, M46I, I54V, L63P, A71T, V77I, V82A, L90M
Procedure: as §1, §2

[18] = Human immunodeficiency virus 1, MT4, strain LAI, read-out: IC50
[19] = Human immunodeficiency virus 1, strain r13021
[20] = Human immunodeficiency virus 1, strain r13023

| SMILES | pIC50 [1, 18] | pIC50 [2] | pIC50 [3, 19] | pIC50 [4] | pIC50 [5, 20] | pIC50 [6] | pIC50 [7] | pIC50 [8] | pIC50 [9] | pIC50 [10] | pIC50 [11] | pIC50 [12] | pIC50 [13] | pIC50 [14] | pIC50 [15] | pIC50 [16] | pIC50 [17] | pIC50 ([3]; strain r13021) | pIC50 ([5]; strain r13023) | pIC50 ([1]; Human immunodeficiency virus 1, MT4) |
| --- | --- | --- | --- | --- | --- | --- | --- | --- | --- | --- | --- | --- | --- | --- | --- | --- | --- | --- | --- | --- |
| CC(C)CN(C[C@@H](O)[C@H](Cc1ccccc1)NC(=O)O[C@H]1CCOC1)S(=O)(=O)c1ccc(N)cc1 [AMP, Amprenavir] | 7.44 | 6.97 | 6.67 | 6.74 | 6.66 | 6.74 | 6.18 | 6.87 | 6.19 | 6.67 | 7.31 | 7.47 | 6.71 | 6.17 | 7.98 | 6.35 | 6.78 |  |  |  |
| CC(C)CN(CC(O)C(Cc1ccccc1)NC(=O)OC1COC2OCCC12)S(=O)(=O)c1ccc2c(c1)OCO2 (stereo not drawn) [Compound 14] | 9.10 | 9.10 |  | 8.96 |  | 8.26 | 7.48 | 9.10 | 8.14 | 8.28 | 9.70 | 9.52 | 8.96 | 8.26 | 9.70 | 8.54 | 9.30 | 8.82 | 8.55 |  |
| CC(C)(C)NC(=O)[C@@H]1CN(Cc2cccnc2)CCN1C[C@@H](O)C[C@@H](Cc1ccccc1)C(=O)N[C@H]1c2ccccc2C[C@H]1O [IND, Indinavir] | 7.56 | 5.86 | 5.76 | 5.77 | 6.17 | 5.97 | 5.90 | 5.57 | 6.15 | 6.04 | 6.24 | 6.81 | 6.07 | 6.20 | 8.13 | 6.20 | 6.71 |  |  |  |
| Cc1c(O)cccc1C(=O)N[C@@H](CSc1ccccc1)[C@H](O)CN1C[C@H]2CCCC[C@H]2C[C@H]1C(=O)NC(C)(C)C [NEL, Nelfinavir] | 7.48 | 5.43 | 5.39 | 5.39 | 5.99 | 5.49 | 5.04 | 5.91 | 5.49 | 5.42 | 6.00 | 6.30 | 5.92 | 5.70 | 6.44 | 5.49 | 6.18 |  |  |  |
| CC(C)c1nc(CN(C)C(=O)N[C@H](C(=O)N[C@@H](Cc2ccccc2)C[C@H](O)[C@H](Cc2ccccc2)NC(=O)OCc2cncs2)C(C)C)cs1 [RIT, Ritonavir] | 7.52 | 5.03 | < 5.00 | < 5.00 | 5.42 | 5.55 | 5.65 | < 5.00 | 5.50 | 5.44 | 5.52 | 6.07 | 5.46 | < 5.00 | 7.51 | 5.55 | 5.57 |  |  |  |
| CC(C)(C)NC(=O)[C@@H]1C[C@@H]2CCCC[C@@H]2CN1C[C@@H](O)[C@H](Cc1ccccc1)NC(=O)[C@H](CC(N)=O)NC(=O)c1ccc2ccccc2n1 [SAQ, Saquinavir] |  | 5.45 | 5.84 | 6.18 | 6.11 | 5.68 | 6.80 | 5.70 | 5.53 | 5.58 | 6.76 | 6.17 | 7.28 | 6.00 | 8.28 | 6.29 | 7.56 |  |  | 8.10 |
